Where two headings read alike, the source gives them in different places.
Tests used:
mutant HIV-1 I84V/L90M = assay: Resistance Evaluation, I84V/L90M fold change; format: cell-based; conditions: mutant I84V/L90M vs wild type
in vitro = conditions: human
WT HIV-1 [1] = assay: microbe, parasite or virus in culture; format: cell-based; conditions: Human immunodeficiency virus 1, MT4, read-out: Cell-based assay (MT-4) EC50/nM WT
[2] = system: recombinant HIV-1 10I 48V 54V 82A; assay: microbe, parasite or virus in culture; format: cell-based; conditions: Human immunodeficiency virus 1, MT4, read-out: Cell-based assay (MT-4) EC50/nM 48V 54V 82A
[3] = system: recombinant HIV-1 30N 50S 82I 88D; assay: microbe, parasite or virus in culture; format: cell-based; conditions: Human immunodeficiency virus 1, MT4, read-out: Cell-based assay (MT-4) EC50/nM 30N 82I 88D
[4] = system: recombinant HIV-1 10I 84V 71V 73S 90M; assay: microbe, parasite or virus in culture; format: cell-based; conditions: Human immunodeficiency virus 1, MT4, read-out: Cell-based assay (MT-4) EC50/nM 84V 90M
HIV-1 protease 84V90M = target: T1, HIV-1 protease 84V90M (Human immunodeficiency virus type 1 group M subtype B, UniProt P04585, I572V/L578M); assay: Enzymatic assay, IC50 against 84V90M mutant protease; format: biochemical
T1 construct: synthetic hexapeptide substrate cleavage by HIV-1 protease

[5] = system: wild-type HIV-1 strain IIIB; assay: microbe, parasite or virus in culture; format: cell-based; conditions: Human immunodeficiency virus 1, IIIB
[6] = system: recombinant HIV-1 strains with resistance mutations in the protease gene; assay: Cross-Resistance Profile Assay, whole panel; format: cell-based; conditions: {}
in vivo = conditions: beagle, dog, po
[7] = target: T2, recombinant HIV-1 protease (Human immunodeficiency virus type 1 group M subtype B, UniProt P04585); assay: biochemical; conditions: read-out: Ki
T2 construct: Enzyme: recombinant HIV-1 protease expressed in E.Coli; purchased Bachem California, Inc. H-9040; host or cells: E. coli

WT HIV protease = target: T3, WT HIV protease (Human immunodeficiency virus type 1 group M subtype B, UniProt P04585); assay: biochemical; design: species or system HIV-1; conditions: read-out: WT IC50/nM
T3 construct: synthetic hexapeptide substrate cleavage by HIV-1 protease

84V90M HIV protease = 84V90M HIV protease (Human immunodeficiency virus type 1 group M subtype B, UniProt P04585, I572V/L578M); assay: biochemical; design: species or system HIV-1
WT HIV-1 [8] = assay: microbe, parasite or virus in culture; format: cell-based; conditions: read-out: Cell-based assay (MT-4) EC50/nM WT
HIV-1 84V90M = assay: microbe, parasite or virus in culture; format: cell-based
HIV-1 30N82I88D = assay: microbe, parasite or virus in culture; format: cell-based
HIV-1 48V54V82A = assay: microbe, parasite or virus in culture; format: cell-based
HIV-1 46I50V = assay: microbe, parasite or virus in culture; format: cell-based
HIV-1 48V54V82S = assay: microbe, parasite or virus in culture; format: cell-based; conditions: Human immunodeficiency virus 1, read-out: Cell-based assay (MT-4) EC50/nM 48V54V82S
HIV-1 48V82A90M = assay: microbe, parasite or virus in culture; format: cell-based; conditions: Human immunodeficiency virus 1, read-out: Cell-based assay (MT-4) EC50/nM 48V82A90M
[9] = system: recombinant HIV-1 46I 47V 50V; assay: microbe, parasite or virus in culture; format: cell-based; conditions: Human immunodeficiency virus 1, MT4, read-out: Cell-based assay (MT-4) EC50/nM 47I 50V
[10] = system: recombinant HIV-1 10I 48V 71V 82A 90M; assay: microbe, parasite or virus in culture; format: cell-based; conditions: Human immunodeficiency virus 1, MT4, read-out: Cell-based assay (MT-4) EC50/nM 48V 82A 90M
[11] = system: recombinant HIV-1 48V 54V 71V 82S; assay: microbe, parasite or virus in culture; format: cell-based; conditions: Human immunodeficiency virus 1, MT4, read-out: Cell-based assay (MT-4) EC50/nM 48V 54V 82S
[12] = MT2, 120 h, read-out: Anti-HIV-1 Cell Culture Activity EC50

## CC(C)CN(CC(O)C(Cc1ccc(OCP(=O)(OCc2ccccc2)OCc2ccccc2)cc1)NC(=O)OC1COC2OCCC12)S(=O)(=O)c1ccc(OC(F)(F)F)cc1 (centres unmarked)
Mutant HIV-1 I84V/L90M
  I84V/L90M fold change: + (>3 to ≦10)
In vitro
  CC50: 5000 to 50000 nM

## O=C1N(Cc2ccccc2)C(Cc2ccccc2)C(O)C(O)C(Cc2ccc(OCP(=O)(OCc3ccccc3)OCc3ccccc3)cc2)N1Cc1ccccc1 (centres unmarked)
WT HIV-1 [1]
  EC50: 1770 nM
[2]
  EC50: > 6000 nM
[3]
  EC50: 3140 nM
[4]
  EC50: > 6000 nM
HIV-1 protease 84V90M
  IC50: 158 nM

## O=C1N(Cc2ccccc2)C(Cc2ccccc2)C(O)C(O)C(Cc2ccc(OCP(=O)(O)O)cc2)N1Cc1ccccc1 (centres unmarked)
WT HIV-1 [1]
  EC50: > 6000 nM
[4]
  EC50: > 6000 nM
HIV-1 protease 84V90M
  IC50: 210 nM

## CC(C)CN(C[C@@H](O)[C@H](Cc1ccccc1)NC(=O)O[C@H]1CCOC1)S(=O)(=O)c1ccc(N)cc1 [Amprenavir, reference compound]
[5]
  EC50: < 50 nM
[5]; [12]
  EC50: 16 ± 2.2 nM
[6]
  Total No. of Resistant Viruses: 4
In vivo
  AUC: 102 µM·h
  half-life: 1.7 h
In vitro
  CC50: > 50000 nM

## Nc1n[nH]c2ccc(CN3C(=O)N(CCCCO)C(Cc4ccccc4)C(O)C(O)C3Cc3ccccc3)cc12 (centres unmarked) [CH2OH]
[7]
  Ki: 0.017 nM
WT HIV protease
  IC50: 2.8 nM
84V90M HIV protease; Enzymatic assay, 84V90M, read-out: 84V90M IC50/nM
  IC50: 31 nM
WT HIV-1 [8]
  EC50: 253 nM
HIV-1 84V90M; MT-4, 84V90M, read-out: Cell-based assay (MT-4) EC50/nM 84V90M
  EC50: 1110 nM
HIV-1 30N82I88D; MT-4, 30N82I88D, read-out: Cell-based assay (MT-4) EC50/nM 30N82I88D
  EC50: 486 nM
HIV-1 48V54V82A; MT-4, 48V54V82A, read-out: Cell-based assay (MT-4) EC50/nM 48V54V82A
  EC50: 413 nM
HIV-1 46I50V; MT-4, 46I50V, read-out: Cell-based assay (MT-4) EC50/nM 46I50V
  EC50: 524 nM

## CCOP(=O)(COc1ccc(C[C@H](NC(=O)O[C@H]2CO[C@H]3OCC[C@H]32)[C@H](O)CN(CC(C)C)S(=O)(=O)c2ccc(OC)cc2)cc1)OCC [Compound 13]
[5]; [12]
  EC50: 3 nM
In vitro
  CC50: 50000 nM

## COc1ccc(S(=O)(=O)N(CC(C)C)C[C@@H](O)[C@H](Cc2ccccc2)NC(=O)O[C@H]2CO[C@H]3OCC[C@H]32)cc1 [Example 94-003, reference compound]
[5]
  EC50: < 50 nM
[5]; [12]
  EC50: 1.4 ± 0.3 nM
[6]
  Total No. of Resistant Viruses: 3
In vitro
  CC50: 5000 to 50000 nM

## Cc1c(O)cccc1C(=O)N[C@@H](CSc1ccccc1)[C@H](O)CN1C[C@H]2CCCC[C@H]2C[C@H]1C(=O)NC(C)(C)C [Nelfinavir]
[5]
  EC50: < 50 nM
[6]
  Total No. of Resistant Viruses: 9
Quiescent PBMC
  distribution between cytosol and membrane fractions: present only in the membrane fractions
In vivo
  AUC: 33 µM·h
  half-life: 3 h

## CCOP(=O)(COc1ccc(CC2C(O)C(O)C(Cc3ccc(OC)cc3)N(Cc3cccc(N)c3)C(=O)N2Cc2cccc(N)c2)cc1)OCC (centres unmarked) [OCH3, Ph-mNH2, OCH2PO3Et2]
84V90M HIV protease
  IC50: 56 nM
HIV-1 84V90M; Human immunodeficiency virus 1, read-out: Cell-based assay (MT-4) EC50/nM 84V90M
  EC50: 535 nM
HIV-1 30N82I88D; Human immunodeficiency virus 1, read-out: Cell-based assay (MT-4) EC50/nM 30N82I88D
  EC50: 18 nM
HIV-1 48V54V82A; Human immunodeficiency virus 1, read-out: Cell-based assay (MT-4) EC50/nM 48V54V82A
  EC50: 202 nM
HIV-1 48V54V82S
  EC50: 117 nM
HIV-1 48V82A90M
  EC50: 102 nM
HIV-1 46I50V; Human immunodeficiency virus 1, read-out: Cell-based assay (MT-4) EC50/nM 46I50V
  EC50: 36 nM

## CCOP(=O)(COc1ccc(CC2C(O)C(O)C(Cc3ccc(OC)cc3)N(Cc3cccc(N)c3)C(=O)N2Cc2cccc(N)c2)cc1)OCC (centres unmarked) [OCH3/Ph-mNH2/OCH2PO3Et2]
WT HIV-1 [1]
  EC50: 63 nM
[2]
  EC50: 202 nM
[9]
  EC50: 36 nM
[3]
  EC50: 18 nM
[10]
  EC50: 102 nM
[11]
  EC50: 117 nM
[4]
  EC50: 535 nM
HIV-1 protease 84V90M
  IC50: 56 nM
